A short description of this data set: Fading evaluation in fetal bovine serum under interior light (680 LUX). The conditions noted are these: 5 μM in FBS, absorbance at maximum absorption wavelength after 24 hours. It counts as physicochemical. As to the method:
The ordinate of FIG. 10 indicates log(At/A0) where A0 and At respectively represent absorbance at the maximum absorption wavelength after the lapse of 0 and t hours from the irradiation of the interior light. The fading rate in Table 1 is expressed by (A0-A24)/A0, that is, variation in absorbance at the maximum absorption wavelength after the lapse of 24 hours.

In the case of Alexa Fluor (trademark) 750 [Reagent 1], the “Fading rate (A0-A24)/A0” value amounted to 4.5%.

The values above are taken from US8293782B2, “Compound, probe containing the novel compound, and fluorescence-imaging contrast agent containing the novel compound or the probe” (Canon Kabushiki Kaisha, priority 2009, dated 2012).
